# Patent US20250026778A1 (TIUMBIO CO., LTD., priority 2021, published 2025)
# Target: T1, his-galectin-3 (Homo sapiens, UniProt P17931)
# T1 construct: purchased Abcam
# Assay: TR-FRET assay (in vitro galectin-3 binding inhibitory activity test)
# Settings: Table 2; compound at 20 μM; 60 nM his-galectin-3, 15 nM biotin-ASF; read-out: % Inhibitory activity (at 20 μM)
# How it was run: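 Compound is premixed with his-galectin-3 (60 nM final), then biotin-ASF (15 nM), Tb anti-His antibody (2 nM) and streptavidin-d2 (20 nM) are added. After at least 3.5 hours at RT in HEPES/NaCl buffer with Tween 20 and BSA, TR-FRET is read at 615/665 nm. DMSO serves as the uninhibited control, ASF omission as background.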
# T1 sequence (P17931 whole entry): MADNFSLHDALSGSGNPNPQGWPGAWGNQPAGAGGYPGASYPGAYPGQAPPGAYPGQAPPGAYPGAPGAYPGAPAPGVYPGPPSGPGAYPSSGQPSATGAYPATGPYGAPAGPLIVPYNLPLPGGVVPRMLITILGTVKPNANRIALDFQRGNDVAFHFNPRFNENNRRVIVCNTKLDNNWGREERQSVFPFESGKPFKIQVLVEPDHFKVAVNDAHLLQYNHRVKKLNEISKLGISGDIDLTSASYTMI
row,inhibition at 20 µM [%],Structure (SMILES)
1,> 75,"O=C(N[C@@H]1CCO[C@]12O[C@H](CO)[C@H](O)[C@H](n1cc(-c3cc(F)c(F)c(F)c3)nn1)[C@H]2O)c1cccc2ncc(F)cc12 [Compound A216, N-((4R,5S,7R,8R,9S,10R)-8,10-dihydroxy-7-(hydroxymethyl)-9-(4-(3,4,5-trifluorophenyl)-1H-1,2,3-triazol-1-yl)-1,6-dioxaspiro[4.5]decan-4-yl)-3-fluoroquinoline-5-carboxamide]"
2,> 75,"O=C(N[C@@H]1CCO[C@]12O[C@H](CO)[C@H](O)[C@H](n1cc(-c3cc(F)c(F)c(F)c3)nn1)[C@H]2O)c1cccc2ncc(Cl)cc12 [Compound A217, 3-chloro-N-((4R,5S,7R,8R,9S,10R)-8,10-dihydroxy-7-(hydroxymethyl)-9-(4-(3,4,5-trifluorophenyl)-1H-1,2,3-triazol-1-yl)-1,6-dioxaspiro[4.5]decan-4-yl)quinoline-5-carboxamide]"
3,50 to 75,"O=C(N[C@@H]1CCO[C@]12O[C@H](CO)[C@H](O)[C@H](n1cc(-c3cc(F)c(F)c(F)c3)nn1)[C@H]2O)c1c[nH]c2ccc(Cl)cc12 [Compound A219, 5-chloro-N-((4R,5S,7R,8R,9S,10R)-8,10-dihydroxy-7-(hydroxymethyl)-9-(4-(3,4,5-trifluorophenyl)-1H-1,2,3-triazol-1-yl)-1,6-dioxaspiro[4.5]decan-4-yl)-1H-indole-3-carboxamide]"
4,> 75,"Cc1cc(C(=O)N[C@@H]2CCO[C@]23O[C@H](CO)[C@H](O)[C@H](n2cc(-c4cc(F)c(F)c(F)c4)nn2)[C@H]3O)c2cc(F)ccc2n1 [Compound A228, N-((4R,5S,7R,8R,9S,10R)-8,10-dihydroxy-7-(hydroxymethyl)-9-(4-(3,4,5-trifluorophenyl)-1H-1,2,3-triazol-1-yl)-1,6-dioxaspiro[4.5]decan-4-yl)-6-fluoro-2-methylquinoline-4-carboxamide]"
5,> 75,"Cc1cc(C(=O)N[C@@H]2CCO[C@]23O[C@H](CO)[C@H](O)[C@H](n2cc(-c4cc(F)c(F)c(F)c4)nn2)[C@H]3O)c2cc(Cl)ccc2n1 [Compound A229, 6-chloro-N-((4R,5S,7R,8R,9S,10R)-8,10-dihydroxy-7-(hydroxymethyl)-9-(4-(3,4,5-trifluorophenyl)-1H-1,2,3-triazol-1-yl)-1,6-dioxaspiro[4.5]decan-4-yl)-2-methylquinoline-4-carboxamide]"
6,> 75,"Cc1cc(C(=O)N[C@@H]2CCO[C@]23O[C@H](CO)[C@H](O)[C@H](n2cc(-c4cc(F)c(F)c(F)c4)nn2)[C@H]3O)c2cc(Br)ccc2n1 [Compound A231, 6-bromo-N-((4R,5S,7R,8R,9S,10R)-8,10-dihydroxy-7-(hydroxymethyl)-9-(4-(3,4,5-trifluorophenyl)-1H-1,2,3-triazol-1-yl)-1,6-dioxaspiro[4.5]decan-4-yl)-2-methylquinoline-4-carboxamide]"
7,50 to 75,"Cn1cc(C(=O)N[C@@H]2CCO[C@]23O[C@H](CO)[C@H](O)[C@H](n2cc(-c4cc(F)c(F)c(F)c4)nn2)[C@H]3O)c2cc(Cl)ccc21 [Compound A233, 5-chloro-N-((4R,5S,7R,8R,9S,10R)-8,10-dihydroxy-7-(hydroxymethyl)-9-(4-(3,4,5-trifluorophenyl)-1H-1,2,3-triazol-1-yl)-1,6-dioxaspiro[4.5]decan-4-yl)-1-methyl-1H-indole-3-carboxamide]"

# The remaining lines, values behind:
row,Structure (SMILES),inhibition at 20 µM [%]
1,"O=C(N[C@@H]1CCO[C@]12O[C@H](CO)[C@H](O)[C@H](n1cc(-c3cc(F)c(F)c(F)c3)nn1)[C@H]2O)c1ccc(Br)c2ncccc12 [Compound A213, 8-bromo-N-((4R,5S,7R,8R,9S,10R)-8,10-dihydroxy-7-(hydroxymethyl)-9-(4-(3,4,5-trifluorophenyl)-1H-1,2,3-triazol-1-yl)-1,6-dioxaspiro[4.5]decan-4-yl)quinoline-5-carboxamide]",50 to 75
2,"CC1CO[C@@]2(C1)O[C@H](CO)[C@H](O)[C@H](n1cc(-c3cc(F)c(F)c(F)c3)nn1)[C@H]2O (stereo partly drawn) [Compound A214, (5S,7R,8R,9S,10R)-7-(hydroxymethyl)-3-methyl-9-(4-(3,4,5-trifluorophenyl)-1H-1,2,3-triazol-1-yl)-1,6-dioxaspiro[4.5]decane-8,10-diol]",50 to 75
3,"O=C(Nc1cccc(Cl)c1)N[C@@H]1CCO[C@]12O[C@H](CO)[C@H](O)[C@H](n1cc(-c3cc(F)c(F)c(F)c3)nn1)[C@H]2O [Compound A215, 1-(3-chlorophenyl)-3-((4R,5S,7R,8R,9S,10R)-8,10-dihydroxy-7-(hydroxymethyl)-9-(4-(3,4,5-trifluorophenyl)-1H-1,2,3-triazol-1-yl)-1,6-dioxaspiro[4.5]decan-4-yl)urea]",> 75
4,"Cc1oc2ccccc2c1C(=O)N[C@@H]1CCO[C@]12O[C@H](CO)[C@H](O)[C@H](n1cc(-c3cc(F)c(F)c(F)c3)nn1)[C@H]2O [Compound A218, N-((4R,5S,7R,8R,9S,10R)-8,10-dihydroxy-7-(hydroxymethyl)-9-(4-(3,4,5-trifluorophenyl)-1H-1,2,3-triazol-1-yl)-1,6-dioxaspiro[4.5]decan-4-yl)-2-methylbenzofuran-3-carboxamide]",> 75
5,"OC[C@H]1O[C@@]2(CCCN(c3cccc4ccccc34)C2)[C@H](O)[C@@H](n2cc(-c3cc(F)c(F)c(F)c3)nn2)[C@H]1O [Compound A220, (2R,3R,4S,5R,6R)-2-(hydroxymethyl)-8-(naphthalen-1-yl)-4-(4-(3,4,5-trifluorophenyl)-1H-1,2,3-triazol-1-yl)-1-oxa-8-azaspiro[5.5]undecane-3,5-diol]",< 25
6,"OC[C@H]1O[C@@]2(CCCN(c3ccccc3Cl)C2)[C@H](O)[C@@H](n2cc(-c3cc(F)c(F)c(F)c3)nn2)[C@H]1O [Compound A222, (2R,3R,4S,5R,6R)-8-(2-chlorophenyl)-2-(hydroxymethyl)-4-(4-(3,4,5-trifluorophenyl)-1H-1,2,3-triazol-1-yl)-1-oxa-8-azaspiro[5.5]undecane-3,5-diol]",< 25
7,"OC[C@H]1O[C@@]2(CCCN(c3cccc(Cl)c3)C2)[C@H](O)[C@@H](n2cc(-c3cc(F)c(F)c(F)c3)nn2)[C@H]1O [Compound A223, (2R,3R,4S,5R,6R)-8-(3-chlorophenyl)-2-(hydroxymethyl)-4-(4-(3,4,5-trifluorophenyl)-1H-1,2,3-triazol-1-yl)-1-oxa-8-azaspiro[5.5]undecane-3,5-diol]",< 25
8,"OC[C@H]1O[C@@]2(CCCN(c3ccc(Cl)cc3)C2)[C@H](O)[C@@H](n2cc(-c3cc(F)c(F)c(F)c3)nn2)[C@H]1O [Compound A224, (2R,3R,4S,5R,6R)-8-(4-chlorophenyl)-2-(hydroxymethyl)-4-(4-(3,4,5-trifluorophenyl)-1H-1,2,3-triazol-1-yl)-1-oxa-8-azaspiro[5.5]undecane-3,5-diol]",< 25
9,"OC[C@H]1O[C@@]2(CCCN(c3cccs3)C2)[C@H](O)[C@@H](n2cc(-c3cc(F)c(F)c(F)c3)nn2)[C@H]1O [Compound A225, (2R,3R,4S,5R,6R)-2-(hydroxymethyl)-8-(thiophen-2-yl)-4-(4-(3,4,5-trifluorophenyl)-1H-1,2,3-triazol-1-yl)-1-oxa-8-azaspiro[5.5]undecane-3,5-diol]",< 25
10,"O=C(c1ccc(Cl)cc1)N1CCC[C@]2(C1)O[C@H](CO)[C@H](O)[C@H](n1cc(-c3cc(F)c(F)c(F)c3)nn1)[C@H]2O [Compound A227, (4-chlorophenyl)((2R,3R,4S,5R,6R)-3,5-dihydroxy-2-(hydroxymethyl)-4-(4-(3,4,5-trifluorophenyl)-1H-1,2,3-triazol-1-yl)-1-oxa-8-azaspiro[5.5]undecan-8-yl)methanone]",< 25
11,"O=C(N[C@@H]1CCO[C@]12O[C@H](CO)[C@H](O)[C@H](n1cc(-c3cc(F)c(F)c(F)c3)nn1)[C@H]2O)c1cccc2occc12 [Compound A230, N-((4R,5S,7R,8R,9S,10R)-8,10-dihydroxy-7-(hydroxymethyl)-9-(4-(3,4,5-trifluorophenyl)-1H-1,2,3-triazol-1-yl)-1,6-dioxaspiro[4.5]decan-4-yl)benzofuran-4-carboxamide]",50 to 75
12,"O=C(N[C@@H]1CCO[C@]12O[C@H](CO)[C@H](O)[C@H](n1cc(-c3cc(F)c(F)c(F)c3)nn1)[C@H]2O)c1c[nH]c2cccc(Cl)c12 [Compound A232, 4-chloro-N-((4R,5S,7R,8R,9S,10R)-8,10-dihydroxy-7-(hydroxymethyl)-9-(4-(3,4,5-trifluorophenyl)-1H-1,2,3-triazol-1-yl)-1,6-dioxaspiro[4.5]decan-4-yl)-1H-indole-3-carboxamide]",> 75
13,"Cc1sc2ccccc2c1C(=O)N[C@@H]1CCO[C@]12O[C@H](CO)[C@H](O)[C@H](n1cc(-c3cc(F)c(F)c(F)c3)nn1)[C@H]2O [Compound A234, N-((4R,5S,7R,8R,9S,10R)-8,10-dihydroxy-7-(hydroxymethyl)-9-(4-(3,4,5-trifluorophenyl)-1H-1,2,3-triazol-1-yl)-1,6-dioxaspiro[4.5]decan-4-yl)-2-methylbenzo[b]thiophene-3-carboxamide]",> 75
14,"OC[C@H]1O[C@@]2(CCCO2)[C@H](O)[C@@H](n2cc(-c3cc(F)c(F)c(F)c3)cn2)[C@H]1O [Compound A237, (5S,7R,8R,9S,10R)-7-(hydroxymethyl)-9-(4-(3,4,5-trifluorophenyl)-1H-pyrazol-1-yl)-1,6-dioxaspiro[4.5]decane-8,10-diol]",25 to 50

# Same assay, conditions: Table 3, found values; compound at 20 μM; 60 nM his-galectin-3, 15 nM biotin-ASF; read-out: % Inhibitory activity (at 20 μM)
row,inhibition at 20 µM [%],Structure (SMILES)
1,24.2,"OC[C@H]1O[C@@]2(CCCN(c3ccc(Cl)cc3)C2)[C@H](O)[C@@H](n2cc(-c3cc(F)c(F)c(F)c3)nn2)[C@H]1O [Compound A224, (2R,3R,4S,5R,6R)-8-(4-chlorophenyl)-2-(hydroxymethyl)-4-(4-(3,4,5-trifluorophenyl)-1H-1,2,3-triazol-1-yl)-1-oxa-8-azaspiro[5.5]undecane-3,5-diol]"
2,66.5,"O=C(N[C@@H]1CCO[C@]12O[C@H](CO)[C@H](O)[C@H](n1cc(-c3cc(F)c(F)c(F)c3)nn1)[C@H]2O)c1cccc2occc12 [Compound A230, N-((4R,5S,7R,8R,9S,10R)-8,10-dihydroxy-7-(hydroxymethyl)-9-(4-(3,4,5-trifluorophenyl)-1H-1,2,3-triazol-1-yl)-1,6-dioxaspiro[4.5]decan-4-yl)benzofuran-4-carboxamide]"

# Same assay, conditions: read-out: % Inhibitory activity (at 20 μM), Table 2; compound at 20 μM; 60 nM his-galectin-3, 15 nM biotin-ASF
row,Structure (SMILES),inhibition at 20 µM [%]
1,"OC[C@H]1O[C@@]2(CCCN(c3ccncn3)C2)[C@H](O)[C@@H](n2cc(-c3cc(F)c(F)c(F)c3)nn2)[C@H]1O [Compound A226, (2R,3R,4S,5R,6R)-2-(hydroxymethyl)-8-(pyrimidin-4-yl)-4-(4-(3,4,5-trifluorophenyl)-1H-1,2,3-triazol-1-yl)-1-oxa-8-azaspiro[5.5]undecane-3,5-diol]",< 25
